Measured values reported in PMC5218480 (PLoS ONE, 2017).

System: MV-4-11 cells
Test: Gene expression microarray analysis (Affymetrix PrimeView) and GSEA
Format: cell-based, human
Design: RFU PODN (11730768_x_at) / Fold change /veh PODN (11730768_x_at) / RFU LINC00158 (11744669_a_at) / Fold change /veh LINC00158 (11744669_a_at) / RFU DUSP10 (11751237_a_at) / Fold change /veh DUSP10 (11751237_a_at) / RFU ID3 (11757404_x_at) / Fold change /veh ID3 (11757404_x_at) / RFU PLEKHG5 (11737974_s_at) / Fold change /veh PLEKHG5 (11737974_s_at) / RFU LRRC4B (11730491_at) / Fold change /veh LRRC4B (11730491_at) / RFU GIMAP4 (11747438_a_at) / Fold change /veh GIMAP4 (11747438_a_at) / RFU KRT8 (11758183_x_at) / Fold change /veh KRT8 (11758183_x_at) / RFU CNN1 (11734310_a_at) / Fold change /veh CNN1 (11734310_a_at) / RFU VPS37D (11726825_at) / Fold change /veh VPS37D (11726825_at) / RFU C10orf10 (11716522_x_at) / Fold change /veh C10orf10 (11716522_x_at) / RFU KIR2DL2 /// KIR2DL4 /// KIR2DL5A /// KIR2DL5B /// KIR2DS1 /// KIR2DS2 /// KIR2DS3 /// KIR2DS4 /// KIR3DL3 /// KIR3DL3 /// KIR3DS1 (11738374_at) / Fold change /veh KIR2DL2 /// KIR2DL4 /// KIR2DL5A /// KIR2DL5B /// KIR2DS1 /// KIR2DS2 /// KIR2DS3 /// KIR2DS4 /// KIR3DL3 /// KIR3DL3 /// KIR3DS1 (11738374_at) / RFU C1QL1 (11718748_at) / Fold change /veh C1QL1 (11718748_at) / RFU TMPRSS4 (11747572_a_at) / Fold change /veh TMPRSS4 (11747572_a_at) / RFU HAMP (11756126_x_at) / Fold change /veh HAMP (11756126_x_at) / RFU RNFT2 (11725882_a_at) / Fold change /veh RNFT2 (11725882_a_at) / RFU NR4A2 (11747474_a_at) / Fold change /veh NR4A2 (11747474_a_at) / RFU ABCC12 (11746883_a_at) / Fold change /veh ABCC12 (11746883_a_at) / RFU TMEM136 (11760407_x_at) / Fold change /veh TMEM136 (11760407_x_at) / RFU CLDN22 /// WWC2 (11732394_at) / Fold change /veh CLDN22 /// WWC2 (11732394_at) / RFU HLA-DPB1 (11760878_x_at) / Fold change /veh HLA-DPB1 (11760878_x_at) / RFU SPINT1 (11716480_a_at) / Fold change /veh SPINT1 (11716480_a_at) / RFU GAP43 (11754022_s_at) / Fold change /veh GAP43 (11754022_s_at) / RFU A4GNT (11735810_at) / Fold change /veh A4GNT (11735810_at) / RFU PRB3 (11715151_x_at) / Fold change /veh PRB3 (11715151_x_at) / RFU TUBB4B (11761932_at) / Fold change /veh TUBB4B (11761932_at) / RFU CAPN14 (11732068_a_at) / Fold change /veh CAPN14 (11732068_a_at) / RFU TMCC2 (11721928_a_at) / Fold change /veh TMCC2 (11721928_a_at) / RFU IRGQ (11745062_a_at) / Fold change /veh IRGQ (11745062_a_at) / RFU FAM174B (11720279_a_at) / Fold change /veh FAM174B (11720279_a_at) / RFU TMPRSS4 (11748680_a_at) / Fold change /veh TMPRSS4 (11748680_a_at) / RFU FAM212B (11763350_a_at) / Fold change /veh FAM212B (11763350_a_at) / RFU PLEKHG5 (11743358_a_at) / Fold change /veh PLEKHG5 (11743358_a_at) / RFU ZSCAN30 (11745921_a_at) / Fold change /veh ZSCAN30 (11745921_a_at) / RFU CMKLR1 (11741424_a_at) / Fold change /veh CMKLR1 (11741424_a_at) / RFU LOC101060620 /// MAPK8IP1 (11723275_at) / Fold change /veh LOC101060620 /// MAPK8IP1 (11723275_at) / RFU SPTSSB (11747773_x_at) / Fold change /veh SPTSSB (11747773_x_at) / RFU PRSS12 (11739890_at) / Fold change /veh PRSS12 (11739890_at) / RFU BIN1 (11741810_x_at) / Fold change /veh BIN1 (11741810_x_at) / RFU WNT11 (11732464_a_at) / Fold change /veh WNT11 (11732464_a_at) / RFU C10orf10 (11716521_a_at) / Fold change /veh C10orf10 (11716521_a_at) / RFU C5orf56 (11738089_at) / Fold change /veh C5orf56 (11738089_at) / RFU CYB561 (11721691_x_at) / Fold change /veh CYB561 (11721691_x_at) / RFU ANKRD19P (11752326_a_at) / Fold change /veh ANKRD19P (11752326_a_at) / RFU OR2T12 /// OR2T33 /// OR2T8 (11738714_s_at) / Fold change /veh OR2T12 /// OR2T33 /// OR2T8 (11738714_s_at) / RFU VCAN (11748164_a_at) / Fold change /veh VCAN (11748164_a_at) / RFU JSRP1 (11732532_at) / Fold change /veh JSRP1 (11732532_at) / RFU KRTAP10-11 (11738290_x_at) / Fold change /veh KRTAP10-11 (11738290_x_at) / RFU MYO3A (11730013_a_at) / Fold change /veh MYO3A (11730013_a_at) / RFU EBF3 (11725865_a_at) / Fold change /veh EBF3 (11725865_a_at) / RFU CAMK2N1 (11719241_x_at) / Fold change /veh CAMK2N1 (11719241_x_at) / RFU C5orf56 (11738088_a_at) / Fold change /veh C5orf56 (11738088_a_at) / RFU OLFML3 (11715873_a_at) / Fold change /veh OLFML3 (11715873_a_at) / RFU LOC100653217 /// NTM (11731650_a_at) / Fold change /veh LOC100653217 /// NTM (11731650_a_at) / RFU MAPK11 (11762145_a_at) / Fold change /veh MAPK11 (11762145_a_at) / RFU FIZ1 (11724087_x_at) / Fold change /veh FIZ1 (11724087_x_at) / RFU OASL (11726364_x_at) / Fold change /veh OASL (11726364_x_at) / RFU SOX15 (11748057_x_at) / Fold change /veh SOX15 (11748057_x_at) / RFU CD79A (11719716_a_at) / Fold change /veh CD79A (11719716_a_at) / RFU HIST1H1D (11736915_at) / Fold change /veh HIST1H1D (11736915_at) / RFU CASKIN2 (11723855_a_at) / Fold change /veh CASKIN2 (11723855_a_at) / RFU LOC730098 (11760151_x_at) / Fold change /veh LOC730098 (11760151_x_at) / RFU OR4N2 (11742367_at) / Fold change /veh OR4N2 (11742367_at) / RFU PRRT2 (11749266_a_at) / Fold change /veh PRRT2 (11749266_a_at) / RFU SNX32 (11753110_a_at) / Fold change /veh SNX32 (11753110_a_at) / RFU CDHR5 (11726645_a_at) / Fold change /veh CDHR5 (11726645_a_at) / RFU RCAN1 (11760418_a_at) / Fold change /veh RCAN1 (11760418_a_at) / RFU FAM167A (11723789_a_at) / Fold change /veh FAM167A (11723789_a_at) / RFU FAM26E (11764081_at) / Fold change /veh FAM26E (11764081_at) / RFU ISYNA1 (11749810_s_at) / Fold change /veh ISYNA1 (11749810_s_at) / RFU ACY1 (11761880_at) / Fold change /veh ACY1 (11761880_at) / RFU 11764098_at / Fold change /veh 11764098_at / RFU SAMD14 (11745864_x_at) / Fold change /veh SAMD14 (11745864_x_at) / RFU NPB (11741838_a_at) / Fold change /veh NPB (11741838_a_at) / RFU TMPRSS6 (11731388_a_at) / Fold change /veh TMPRSS6 (11731388_a_at) / RFU KRTAP10-2 (11738614_at) / Fold change /veh KRTAP10-2 (11738614_at) / RFU ARHGAP8 /// PRR5-ARHGAP8 (11727945_x_at) / Fold change /veh ARHGAP8 /// PRR5-ARHGAP8 (11727945_x_at) / RFU KRTAP5-7 /// NADSYN1 (11734609_at) / Fold change /veh KRTAP5-7 /// NADSYN1 (11734609_at) / RFU RASL12 (11751679_a_at) / Fold change /veh RASL12 (11751679_a_at) / RFU CDKN2B (11736163_a_at) / Fold change /veh CDKN2B (11736163_a_at) / RFU PRF1 (11729649_at) / Fold change /veh PRF1 (11729649_at) / RFU, ZNF638 /// ZNF638-IT1 / Fold change vs veh, ZNF638 /// ZNF638-IT1 / RFU, PANK3 / Fold change vs veh, PANK3 / RFU, SH3YL1 / Fold change vs veh, SH3YL1 / RFU, ZEB2 / Fold change vs veh, ZEB2 / RFU, NRIP1 / Fold change vs veh, NRIP1 / RFU, PTTG1IP / Fold change vs veh, PTTG1IP / RFU, CAPN2 / Fold change vs veh, CAPN2 / RFU, MED14 / Fold change vs veh, MED14 / RFU, SNORA58 / Fold change vs veh, SNORA58 / RFU, C1orf63 / Fold change vs veh, C1orf63 / RFU, LRRFIP1 / Fold change vs veh, LRRFIP1 / RFU, NDUFAF7 / Fold change vs veh, NDUFAF7 / RFU, SLC12A2 / Fold change vs veh, SLC12A2 / RFU, IBTK / Fold change vs veh, IBTK / RFU, ESF1 / Fold change vs veh, ESF1 / Fold change vs veh, TMEM50B / RFU, TAOK1 / Fold change vs veh, TAOK1 / RFU, ACBD3 / Fold change vs veh, ACBD3 / RFU, TMA16 / Fold change vs veh, TMA16 / RFU, RWDD3 / Fold change vs veh, RWDD3 / RFU, BCAT1 / Fold change vs veh, BCAT1 / RFU, EDEM3 / Fold change vs veh, EDEM3 / RFU, TMEM33 / Fold change vs veh, TMEM33 / RFU, WDR75 / Fold change vs veh, WDR75 / RFU, AHCTF1 / Fold change vs veh, AHCTF1 / RFU, TFRC / Fold change vs veh, TFRC / RFU, ZDHHC17 / Fold change vs veh, ZDHHC17 / RFU, NOM1 / Fold change vs veh, NOM1 / RFU, ARL8B / Fold change vs veh, ARL8B / RFU, ZBTB11 / Fold change vs veh, ZBTB11 / RFU, TAMM41 / Fold change vs veh, TAMM41 / RFU, KIAA1704 /// LOC100996395 / Fold change vs veh, KIAA1704 /// LOC100996395 / RFU, ING1 / Fold change vs veh, ING1 / RFU, TRMT61B / Fold change vs veh, TRMT61B / RFU, FUBP3 / Fold change vs veh, FUBP3 / RFU, TP53 / Fold change vs veh, TP53 / RFU, TNKS2 / Fold change vs veh, TNKS2 / RFU, ZFP14 / Fold change vs veh, ZFP14 / RFU, ACTR2 / Fold change vs veh, ACTR2 / RFU, PPP3R1 / Fold change vs veh, PPP3R1 / RFU, PIK3R1 / Fold change vs veh, PIK3R1 / RFU, HNRNPA1 / Fold change vs veh, HNRNPA1 / RFU, RNF170 / Fold change vs veh, RNF170 / RFU, ZNF28 / Fold change vs veh, ZNF28 / RFU, RNGTT / Fold change vs veh, RNGTT / RFU, OGT / Fold change vs veh, OGT / RFU, BRD1 / Fold change vs veh, BRD1 / RFU, MARS / Fold change vs veh, MARS / RFU, ZNF655 / Fold change vs veh, ZNF655 / RFU, FAHD1 / Fold change vs veh, FAHD1 / RFU, BDP1 / Fold change vs veh, BDP1 / RFU, LRRCC1 / Fold change vs veh, LRRCC1 / RFU, ARID1A / Fold change vs veh, ARID1A / RFU, ZNF146 / Fold change vs veh, ZNF146 / RFU, ZNF330 / Fold change vs veh, ZNF330 / RFU, GPN3 / Fold change vs veh, GPN3 / RFU, C9orf123 / Fold change vs veh, C9orf123 / RFU, N4BP2L2 / Fold change vs veh, N4BP2L2 / RFU, ARFIP1 / Fold change vs veh, ARFIP1 / RFU, FAM179B / Fold change vs veh, FAM179B / RFU, BCL10 / Fold change vs veh, BCL10 / RFU, UHRF1BP1L / Fold change vs veh, UHRF1BP1L / RFU, BET1 / Fold change vs veh, BET1 / RFU, CNOT2 / Fold change vs veh, CNOT2 / RFU, ZNF268 / Fold change vs veh, ZNF268 / Fold change vs veh, ZNF507 / RFU, DGCR2 / Fold change vs veh, DGCR2 / RFU, WDSUB1 / Fold change vs veh, WDSUB1 / Fold change vs veh, HSP90B1 /// MIR3652 / RFU, ADSS / Fold change vs veh, ADSS / RFU, GK / Fold change vs veh, GK / RFU, ZNF148 / Fold change vs veh, ZNF148 / RFU, TAF9 / Fold change vs veh, TAF9 / RFU, SLC1A5 / Fold change vs veh, SLC1A5 / RFU, SLMO2 / Fold change vs veh, SLMO2 / RFU, ABCC4 / Fold change vs veh, ABCC4 / RFU, LOC101060439 /// RAP1B / Fold change vs veh, LOC101060439 /// RAP1B / RFU, RFX7 / Fold change vs veh, RFX7 / RFU, GTPBP10 / Fold change vs veh, GTPBP10 / RFU, CNEP1R1 / Fold change vs veh, CNEP1R1 / RFU, BIVM-ERCC5 /// ERCC5 / Fold change vs veh, BIVM-ERCC5 /// ERCC5 / RFU, ILF3 / Fold change vs veh, ILF3 / RFU 11762660_at / Fold change /veh 11762660_at / RFU VCAN (11757783_s_at) / Fold change /veh VCAN (11757783_s_at) / RFU DDX43 (11728927_at) / Fold change /veh DDX43 (11728927_at) / RFU KRT8 (11758188_x_at) / Fold change /veh KRT8 (11758188_x_at) / RFU NKD1 (11759106_at) / Fold change /veh NKD1 (11759106_at) / RFU SRD5A1 (11742802_a_at) / Fold change /veh SRD5A1 (11742802_a_at) / RFU TPSAB1 /// TPSB2 (11721975_s_at) / Fold change /veh TPSAB1 /// TPSB2 (11721975_s_at) / RFU GSTM3 (11746129_a_at) / Fold change /veh GSTM3 (11746129_a_at) / RFU IL23R (11737362_x_at) / Fold change /veh IL23R (11737362_x_at) / RFU TMEM51 (11727254_a_at) / Fold change /veh TMEM51 (11727254_a_at) / RFU PIWIL2 (11732686_x_at) / Fold change /veh PIWIL2 (11732686_x_at) / RFU ORM1 (11744905_x_at) / Fold change /veh ORM1 (11744905_x_at) / RFU CCDC152 (11743942_at) / Fold change /veh CCDC152 (11743942_at) / RFU ECM1 (11717891_a_at) / Fold change /veh ECM1 (11717891_a_at) / RFU IL23R (11748794_a_at) / Fold change /veh IL23R (11748794_a_at) / RFU TNFAIP8L3 (11732012_x_at) / Fold change /veh TNFAIP8L3 (11732012_x_at) / RFU MBOAT4 (11741988_at) / Fold change /veh MBOAT4 (11741988_at) / RFU 11764193_at / Fold change /veh 11764193_at / RFU TMEM53 (11763286_at) / Fold change /veh TMEM53 (11763286_at) / RFU MAGEB2 (11727129_at) / Fold change /veh MAGEB2 (11727129_at) / RFU TMEM200A (11744735_a_at) / Fold change /veh TMEM200A (11744735_a_at) / RFU CCDC152 (11751479_a_at) / Fold change /veh CCDC152 (11751479_a_at) / RFU FAM211A (11726209_a_at) / Fold change /veh FAM211A (11726209_a_at) / RFU RGS16 (11746705_a_at) / Fold change /veh RGS16 (11746705_a_at) / RFU VCAN (11755009_s_at) / Fold change /veh VCAN (11755009_s_at) / RFU RHOB (11743442_s_at) / Fold change /veh RHOB (11743442_s_at) / RFU RGS16 (11720943_a_at) / Fold change /veh RGS16 (11720943_a_at) / RFU RGS16 (11720944_at) / Fold change /veh RGS16 (11720944_at) / RFU, VPS4B / Fold change vs veh, VPS4B / RFU, CREB1 / Fold change vs veh, CREB1 / RFU, DNAJC13 / Fold change vs veh, DNAJC13 / RFU, GNAQ / Fold change vs veh, GNAQ / RFU, CDK5R1 / Fold change vs veh, CDK5R1 / RFU, ZRANB3 / Fold change vs veh, ZRANB3 / RFU, CUL4A / Fold change vs veh, CUL4A / RFU, CCNY / Fold change vs veh, CCNY / RFU, UFL1 / Fold change vs veh, UFL1 / RFU, COG3 / Fold change vs veh, COG3 / RFU, DIAPH2 / Fold change vs veh, DIAPH2 / RFU, SKA2 / Fold change vs veh, SKA2 / RFU, AFF3 / Fold change vs veh, AFF3 / RFU, LMF1 / Fold change vs veh, LMF1 / RFU, IPO11 / Fold change vs veh, IPO11 / RFU, DFFB / Fold change vs veh, DFFB / RFU, FOXP1 / Fold change vs veh, FOXP1 / RFU, CARD8 / Fold change vs veh, CARD8 / RFU, STRN3 / Fold change vs veh, STRN3 / RFU, ADK / Fold change vs veh, ADK / RFU, RASSF2 / Fold change vs veh, RASSF2 / RFU, WIPF1 / Fold change vs veh, WIPF1 / RFU, LARP1B / Fold change vs veh, LARP1B / RFU, RASA1 / Fold change vs veh, RASA1 / RFU, RB1 / Fold change vs veh, RB1 / RFU, PPFIA1 / Fold change vs veh, PPFIA1 / RFU, MAT2A / Fold change vs veh, MAT2A / RFU, CCT5 / Fold change vs veh, CCT5 / RFU, WDR92 / Fold change vs veh, WDR92 / RFU, CUX1 / Fold change vs veh, CUX1 / RFU, TTC7A / Fold change vs veh, TTC7A / RFU, TMEM135 / Fold change vs veh, TMEM135 / RFU, DEPTOR / Fold change vs veh, DEPTOR / RFU, CPM / Fold change vs veh, CPM / RFU, DNAJB6 / Fold change vs veh, DNAJB6 / RFU, CACNA2D3 / Fold change vs veh, CACNA2D3 / RFU, DTX4 / Fold change vs veh, DTX4 / RFU, TFCP2 / Fold change vs veh, TFCP2 / RFU, GMCL1 /// GMCL1P1 / Fold change vs veh, GMCL1 /// GMCL1P1 / RFU, AEBP2 / Fold change vs veh, AEBP2 / RFU, SNHG1 /// SNORD22 /// SNORD25 /// SNORD26 /// SNORD27 /// SNORD28 /// SNORD29 /// SNORD31 / Fold change vs veh, SNHG1 /// SNORD22 /// SNORD25 /// SNORD26 /// SNORD27 /// SNORD28 /// SNORD29 /// SNORD31 / Fold change (Aza/veh), C12orf56 (ProbeSet 11735607_a_at) / Fold change (ACY-1035/veh), C12orf56 (ProbeSet 11735607_a_at) / Fold change (Aza/veh), FGFR1OP (ProbeSet 11751329_s_at) / Fold change (ACY-1035/veh), FGFR1OP (ProbeSet 11751329_s_at) / Fold change (Aza/veh), VPS36 (ProbeSet 11739960_a_at) / Fold change (ACY-1035/veh), VPS36 (ProbeSet 11739960_a_at) / RFU SYPL1 (11715823_x_at) / Fold change /veh SYPL1 (11715823_x_at) / RFU IGFBP7 (11715501_s_at) / Fold change /veh IGFBP7 (11715501_s_at) / RFU REEP3 (11722064_at) / Fold change /veh REEP3 (11722064_at) / RFU IGLL1 (11728026_x_at) / Fold change /veh IGLL1 (11728026_x_at): dose or concentration left out as unconfirmed
Conditions: ProbeSet 11753055_s_at; LIST B

SMILES: Nc1ncn([C@@H]2O[C@H](CO)[C@@H](O)[C@H]2O)c(=O)n1 [azacitidine]
- RFU, LOC101060439 /// RAP1B: 558.59 RFU
